The species named for one series is Homo sapiens. The series is described as follows: Ratio of AUC for compound to omeprazolein human. Type of series: ADME, organism-based. The conditions noted are these: in vivo.
The test system of series [1] is Liver microsome. The series can be described thus: Drug metabolism in human liver microsomes assessed as dextrorphan formation measured as intrinsic clearance. Format: ADME.
Series [2] deals with Liver microsome. The series can be described thus: Drug metabolism in human liver microsomes assessed as dextrorphan formation measured as microsomal fraction unbound. Type of series: ADME. (In general: Microsomes from liver hold many membrane-bound enzymes, among them those of drug oxidation.)
Series [3] relates to Liver microsome. The series can be described thus: Drug metabolism in human liver microsomes assessed as dextrorphan formation measured as intrinsic unbound clearance. Format: ADME.
Series [4] has as its system Liver microsome. The series can be described thus: Drug metabolism in human liver microsomes assessed as dextrorphan formation. Format: ADME.
Series [5] has as its system Liver microsome. The series can be described thus: Drug metabolism in human liver microsomes assessed as dextrorphan formation measured per mg of microsomal protein. Format: ADME.
Series [6] concerns Liver microsome. The series is described as follows: Drug metabolism in human liver microsomes assessed as dextrorphan formation measured as plasma fraction unbound. Type of series: ADME, cell-free.
Series [7] deals with Liver microsome. The series can be described thus: Drug metabolism in human liver metabolism assessed as 5OH-omeprazole formation measured as intrinsic clearance per mg of microsomal protein. Format: ADME. The conditions noted are these: microsomes.
For series [8], the system named is Liver microsome. The series is described as follows: Drug metabolism in human liver metabolism assessed as omeprazole sulfone depletion measured as microsomal fraction unbound. Type of series: ADME. The conditions noted are these: microsomes.
Series [9] has as its system Liver microsome. The series can be described thus: Drug metabolism in human liver metabolism assessed as omeprazole sulfone formation measured as plasma fraction unbound. Format: ADME, cell-free.
Series [10] relates to Hepatocyte. The series is described as follows: Drug metabolism in human hepatocytes assessed as omeprazole sulfone depletion measured per 10^6 cells as intrinsic unbound clearance. Type of series: ADME, cell-based.
In series [11] the test system is Hepatocyte. The series is described as follows: Drug metabolism in human hepatocytes assessed as 5OH-omeprazole depletion measured per 10^6 cells as intrinsic unbound clearance. Format: ADME, cell-based.
Series [12] relates to Liver microsome. The series can be described thus: Drug metabolism in human liver metabolism assessed as omeprazole sulfone formation measured as microsomal fraction unbound per mg of microsomal protein. Format: ADME. The conditions noted are these: microsomes.
Series [13] deals with Liver microsome. The series is described as follows: Drug metabolism in human liver metabolism assessed as omeprazole sulfone depletion measured as plasma fraction unbound. Type of series: ADME, cell-free.
Series [14] has as its system Liver microsome. The series is described as follows: Drug metabolism in human liver metabolism assessed as 5OH-omeprazole formation measured as intrinsic unbound clearance per mg of microsomal protein. Type of series: ADME. The conditions noted are these: microsomes.
Series [15] relates to Liver microsome. The series is described as follows: Drug metabolism in human liver metabolism assessed as omeprazole sulfone depletion measured as intrinsic unbound clearance per mg of microsomal protein. The note with it: microsomes. Type of series: ADME.
Series [16] has as its system Liver microsome. The series is described as follows: Drug metabolism in human liver metabolism assessed as 5OH-omeprazole formation. Format: ADME, tissue-based.
Series [17] deals with Hepatocyte. The series is described as follows: Drug metabolism in human hepatocytes assessed as 5OH-omeprazole formation measured per 10^6 cells as intrinsic unbound clearance. Type of series: ADME, cell-based.
Series [18] concerns Liver microsome. The series can be described thus: Drug metabolism in human liver metabolism assessed as omeprazole sulfone formation measured as intrinsic clearance per mg of microsomal protein. Type of series: ADME. The note with it: microsomes.
Series [19] relates to Hepatocyte. The series is described as follows: Drug metabolism in human hepatocytes assessed as omeprazole sulfone formation measured per 10^6 cells as intrinsic unbound clearance. Type of series: ADME, cell-based.
For series [20], the system named is Liver microsome. The series is described as follows: Drug metabolism in human liver metabolism assessed as omeprazole sulfone formation. Type of series: ADME, tissue-based.
For series [21], the system named is Liver microsome. The series can be described thus: Drug metabolism in human liver metabolism assessed as omeprazole sulfone formation measured as intrinsic unbound clearance per mg of microsomal protein. Format: ADME. The conditions noted are these: microsomes.
The test system of series [22] is Liver microsome. The series is described as follows: Drug metabolism in human liver metabolism assessed as 5OH-omeprazole formation measured per mg of microsomal protein. Type of series: ADME. The conditions noted are these: microsomes.
In series [23] the test system is Liver microsome. The series is described as follows: Drug metabolism in human liver metabolism assessed as omeprazole sulfone formation measured per mg of microsomal protein. Type of series: ADME. The note with it: microsomes.
Series [24] has as its system Liver microsome. The series can be described thus: Drug metabolism in human liver metabolism assessed as 5OH-omeprazole formation measured as plasma fraction unbound. Format: ADME, cell-free.
In series [25] the test system is Liver microsome. The series is described as follows: Drug metabolism in human liver metabolism assessed as 5OH-omeprazole formation measured as microsomal fraction unbound. The conditions noted are these: microsomes. Format: ADME.
The subject of series [26] is Liver microsome. The series is described as follows: Drug metabolism in human liver metabolism assessed as omeprazole sulfone depletion measured as intrinsic clearance per mg of microsomal protein. Format: ADME. The conditions noted are these: microsomes.

The structures appear in SMILES notation.

By Km is commonly meant the substrate concentration at which the rate is half of its maximum. In general, Vmax refers to the rate approached at saturating substrate.

Consider `COc1ccc2[nH]c([S+]([O-])Cc3ncc(CO)c(OC)c3C)nc2c1` (stereo not drawn), for which the “Ratio AUC” value in the series listed under Homo sapiens turned out to be 0.48.

For the molecule `COc1ccc2c(c1)[C@]13CCCC[C@@H]1[C@H](C2)N(C)CC3` [DEXTROMETHORPHAN], the CLH with Liver microsome [1] is 13 µL/min/mg. In addition, the figures for the Fu with Liver microsome [2] and in the series with Liver microsome [6] were 0.93 and 0.72, respectively. For the same molecule, the CL free in the series with Liver microsome [3] is 14 µL/min/mg. Besides, the Km with Liver microsome [4] stood at 5 µM. Further, the Vmax in the series on Liver microsome [5] is 0.066 nmol/min.

In the case of `COc1ccc2nc(S(=O)(=O)Cc3ncc(C)c(OC)c3C)[nH]c2c1` [OMEPRAZOLE SULFONE], in the series filed under Homo sapiens, the “Ratio AUC” value is 0.85.

For `COc1ccc2[nH]c([S+]([O-])Cc3ncc(C)c(OC)c3C)nc2c1` (stereo not drawn) [OMEPRAZOLE], the CLint in the series with Liver microsome [7] was 7.1 µL/min/mg; with Liver microsome [18], 6.6 µL/min/mg; with Liver microsome [26], 32 µL/min/mg. The Fu with Liver microsome [8] was found to be 0.92; with Liver microsome [9] it was 0.061; in the series with Liver microsome [12] it was 0.86; in the series with Liver microsome [13], 0.0048; in the series on Liver microsome [24] it was 0.061; in the series with Liver microsome [25] it was 0.86. In addition, the CL free with Hepatocyte [10] was 48 uL/hr/10^6cells; in the series with Hepatocyte [11], 100 uL/hr/10^6cells; in the series on Liver microsome [14], 8.2 µL/min/mg; with Liver microsome [15], 35 µL/min/mg; in the series with Hepatocyte [17], 55 uL/hr/10^6cells; in the series with Hepatocyte [19], 3.6 uL/hr/10^6cells. In addition, the CL free in the series on Liver microsome [21] came out at 7.7 µL/min/mg. Also, the Michaelis constant (Km) turned out to be 16 µM in the series with Liver microsome [16] and 11 µM in the series on Liver microsome [20]. In addition, the results for the Vmax in the series on Liver microsome [22] and with Liver microsome [23] were 0.11 nmol/min/mg and 0.074 nmol/min/mg, respectively.

These data come from ChEMBL document CHEMBL3526083, “Prediction of relative in vivo metabolite exposure from in vitro data using two model drugs: dextromethorphan and omeprazole” (Drug Metab Dispos, 2012).
